Results from patent EP0829478A2, “N-Benzylimidazolium and N-benzyltriazolium derivatives, their preparation and their use as antifungal and antimycotic agents” (F. HOFFMANN-LA ROCHE AG, priority 1996, dated 1998).
Structures can show the parent of a compound that is named as a salt. Where two headings read alike, the source gives them in different places.

Columns and labels:
Candida albicans = experiment: Systemic candidiasis model in rats, ED50; assay type: in vivo; settings: 336 h
Excerpt: (§1) Male Fisher rats, strain F344/DuCrj, were employed for experimental infection models such as systemic candidiasis, systemic aspergillosis and pulmonary aspergillosis model. Immunocompetent 4 weeks old rats were used for systemic candidiasis or systemic aspergillosis which occurred her infection with Candida albicans conidia of 5x10^6/rat or with Aspergillus fumigatus conidia of 6x10^5/rat via tail vein. Otherwise for pulmonary aspergillosis model, rats had been immunosuppressed with cortisone acetate treatments prior to infection with 2x10^5/rat intratrachially. Treatments were given twice on the first day and once daily on following 4 days both for systemic and pulmonary aspergillosis (Ib.i.+4q.d.), for systemic candidiasis rats were treated at 0, 4, 24, and 48 h after infection (Ib.i.d.+2q.d.).

Aspergillus fumigatus [1] = experiment: Pulmonary aspergillosis model in immunosuppressed rats, ED50; assay type: in vivo; settings: 336 h
Excerpt: as §1

Aspergillus fumigatus [2] = experiment: Systemic aspergillosis model in rats, ED50; assay type: in vivo; settings: 336 h
Excerpt: as §1

[3] = Water solubility (Table 1); assay type: physicochemical
[4] = Conversion of the azolium compounds to ketoconazole / itraconazole on incubation in human plasma; assay type: in vitro ADME; settings: 10µg/ml, 37°C; for metabolised at 5 min / remaining at 5 min: incubation time 5 min
Procedure: The compounds of formula I were incubated with human plasma at a concentration of 10µg/ml at 37°C for up to 120 min.

[5] = iv, read-out: Effective dose 50% (ED50) Systemic candidiasis i.v., male Fisher rats F344/DuCrj, immunocompetent, i.v., treated at 0, 4, 24 and 48 h after infection, determined on day 14 after infection
[6] = po, read-out: Effective dose 50% (ED50) Systemic candidiasis p.o., male Fisher rats F344/DuCrj, immunocompetent, p.o., treated at 0, 4, 24 and 48 h after infection, determined on day 14 after infection
[7] = iv, read-out: Effective dose 50% (ED50) Pulmonay aspergillosis i.v., male Fisher rats F344/DuCrj immunosuppressed with cortisone acetate, i.v., twice on first day, once daily on following 4 days, determined on day 14 after infection
[8] = po, read-out: Effective dose 50% (ED50) Pulmonay aspergillosis p.o., male Fisher rats F344/DuCrj immunosuppressed with cortisone acetate, p.o., twice on first day, once daily on following 4 days, determined on day 14 after infection
[9] = iv, read-out: Effective dose 50% (ED50) Systemic aspergillosis i.v., male Fisher rats F344/DuCrj, immunocompetent, i.v., twice on first day, once daily on following 4 days, determined on day 14 after infection
[10] = po, read-out: Effective dose 50% (ED50) Systemic aspergillosis p.o., male Fisher rats F344/DuCrj, immunocompetent, p.o., twice on first day, once daily on following 4 days, determined on day 14 after infection
[11] = mcilvaine buffer, pH 8.02, aqueous buffer
[12] = ketoconazole formed, read-out: Observed (%) KCZ
[13] = remaining parent compound, read-out: Observed (%) Comp. I
[14] = solvent a = distilled water, read-out: solubility

Cc1cc(C[n+]2cnn(C[C@](O)(c3ccc(F)cc3F)[C@@H](C)c3nc(-c4ccc(C#N)cc4)cs3)c2)cc(C)c1OC(=O)[C@@H]1CCCN1 [Example 16, 1-[(2R,3R)-3-[4-(4-Cyanophenyl)-thiazol-2-yl]-2-(2,4-difluorophenyl)-2-hydroxybutyl]-4-[(S)-3,5-dimethyl-4-(pyrrolidine-2-carbonyloxy)-benzyl]-1H-[1,2,4]triazol-4-ium bromide trifluoroacetic acid salt]
ED50 (Candida albicans; [5]): 3.5 µmol/kg | ED50 (Candida albicans; [6]): < 2.1 µmol/kg | ED50 (Aspergillus fumigatus [1]; [7]): 17 µmol/kg | ED50 (Aspergillus fumigatus [1]; [8]): 18 µmol/kg | ED50 (Aspergillus fumigatus [2]; [9]): > 35 µmol/kg | ED50 (Aspergillus fumigatus [2]; [10]): > 55 µmol/kg

CCC(C)n1ncn(-c2ccc(N3CCN(c4ccc(OCC5COC(Cn6c[n+](Cc7cc(C)c(OC(=O)c8ccccc8)c(C)c7)cn6)(c6ccc(Cl)cc6Cl)O5)cc4)CC3)cc2)c1=O.[Br-] (centres unmarked) [Example 3, 4-(4-Benzoyloxy-3,5-dimethylbenzyl)-1-[4-(4-{4-[4-(1-(2-butyl)-5-oxo-1,5-dihydro-[1,2,4]triazol-4-yl)phenyl]piperazin-1-yl}phenoxymethyl)-2-(2,4-dichlorophenyl)-[1,3]dioxolan-2-ylmethyl]-1H-[1,2,4]triazol-4-ium bromide]
solubility [3, 11]: 400 µg/mL

CC(=O)Oc1ccc(C[n+]2ccn(C[C@]3(c4ccc(Cl)cc4Cl)OC[C@H](COc4ccc(N5CCN(C(C)=O)CC5)cc4)O3)c2)cc1C (relative stereo) [Example 11, 1-(4-Acetoxy-3-methyl-benzyl)-3-[(2R*,4S*)-4-[4-(4-acetyl-piperazin-1-yl)-phenoxymethyl]-2-(2,4-dichloro-phenyl)-[1,3]dioxolan-2-ylmethyl]-3H-imidazol-1-ium bromide]
metabolised at 5 min [4, 12]: 100% | remaining at 5 min [4, 13]: < 5%

CCC(C)n1ncn(-c2ccc(N3CCN(c4ccc(OCC5COC(Cn6c[n+](Cc7cc(C)c(OC(C)=O)c(C)c7)cn6)(c6ccc(Cl)cc6Cl)O5)cc4)CC3)cc2)c1=O (centres unmarked) [Example 1]
metabolised at 1 h ([4]; itraconazole formed, incubation time 60 min, read-out: Observed (%) ICZ): 28% | remaining at 1 h ([4]; remaining parent compound, incubation time 60 min, read-out: Observed (%) Comp. I): 47%

CO[C@H]1[C@@H](Cn2c[n+](Cc3cc(C)c(OC(C)=O)c(C)c3)cn2)[C@H](CCc2ccc(C)cc2)CCC1(C)C.[Br-] [Example 8, 4-(4-acetoxy-3,5-dimethyl-benzyl)-1-[(1R,2S,6R)-2-methoxy-3,3-dimethyl-6-(2-p-tolyl-ethyl)-cyclohexylmethyl]-1H-[1,2,4]triazol-4-ium bromide]
solubility ([3]; distilled water, water): 14000 µg/mL

CC(=O)Oc1ccc(C[n+]2ccn(C[C@]3(c4ccc(Cl)cc4Cl)OC[C@H](COc4ccc(N5CCN(C(C)=O)CC5)cc4)O3)c2)cc1 (relative stereo) [Example 9, 1-(4-Acetoxybenzyl)-3-[(2R*,4S*)-4-[4-(4-acetylpiperazin-1-yl)phenoxymethyl]-2-(2,4-dichlorophenyl)-[1,3]dioxolan-2-ylmethyl]-3H-imidazol-1-ium bromide]
metabolised at 5 min [4, 12]: 89% | remaining at 5 min [4, 13]: < 5%

CNCC(=O)Oc1c(C)cc(C[n+]2cnn(C[C@](O)(c3ccc(F)cc3F)[C@@H](C)c3nc(-c4ccc(C#N)cc4)cs3)c2)cc1C [Example 23, 1-[(2R,3R)-3-[4-(4-Cyanophenyl)thiazol-2-yl]-2-(2,4-difluorophenyl)-2-hydroxybutyl]-4-[3,5-dimethyl-4-[(methylamino)acetoxy]benzyl]-1H-[1,2,4]triazol-4-ium bromide trifluoroacetic acid salt]
ED50 (Candida albicans; [5]): 4.6 µmol/kg | ED50 (Candida albicans; [6]): 4.7 µmol/kg | ED50 (Aspergillus fumigatus [1]; [7]): 8 µmol/kg | ED50 (Aspergillus fumigatus [1]; [8]): 17 µmol/kg | ED50 (Aspergillus fumigatus [2]; [9]): 17 µmol/kg | ED50 (Aspergillus fumigatus [2]; [10]): 19 µmol/kg

CC(=O)N1CCN(c2ccc(OC[C@H]3CO[C@](Cn4cc[n+](Cc5cc(C)c(OC(=O)C(C)C)c(C)c5)c4)(c4ccc(Cl)cc4Cl)O3)cc2)CC1.[Br-] (relative stereo) [Example 5, 3-[(2R*,4S*)-4-[4-(4-Acetyl-piperazin-1-yl)-phenoxymethyl]-2-(2,4-dichloro-phenyl)-[1,3]dioxolan-2-ylmethyl]-1-(4-isobutyryloxy-3,5-dimethyl-benzyl)-3H-imidazol-1-ium bromide]
solubility ([3]; distilled water, water): > 1000 µg/mL

CCC(C)n1ncn(-c2ccc(N3CCN(c4ccc(OCC5COC(Cn6cncn6)(c6ccc(Cl)cc6Cl)O5)cc4)CC3)cc2)c1=O (centres unmarked) [Itraconazole, reference compound]
ED50 (Aspergillus fumigatus [2]; po, read-out: Effective dose 50% (ED50) Systemic aspergillosis p.o.): 17 µmol/kg

CCC(C)n1ncn(-c2ccc(N3CCN(c4ccc(OCC5COC(Cn6c[n+](Cc7cc(C)c(OC(=O)c8cccnc8)c(C)c7)cn6)(c6ccc(Cl)cc6Cl)O5)cc4)CC3)cc2)c1=O.[Br-] (centres unmarked) [Example 2, 4-(4-(Pyridine-3-carbonyloxy)-3,5-dimethylbenzyl)-1-[4-(4-{4-(4-(1-(2-butyl)-5-oxo-1,5-dihydro-[1,2,4]triazol-4-yl)phenyl]piperazin-1-yl}phenoxymethyl)-2-(2,4-dichlorophenyl)-[1,3]dioxolan-2-ylmethyl]-1H-[1,2,4]triazol-4-ium bromide]
solubility [3, 11]: 400 µg/mL

CC(=O)Oc1c(C)cc(C[n+]2ccn(CC3(c4ccc(Cl)cc4Cl)OCC(COc4ccc(N5CCN(C(C)=O)CC5)cc4)O3)c2)cc1C (stereo not drawn) [Example 4, 1-(4-Acetoxy-3,5-dimethyl-benxyl)-3-[(2R*,4S*)-4-[4-(4-acetyl-piperazin-1-yl)-phenoxymethyl]-2-(2,4-dichloro-phenyl)-[1,3]dioxolan-2-ylmethyl]-3H-imidazol-1-ium bromide]
metabolised at 20 min ([4]; ketoconazole formed, incubation time 20 min, read-out: Observed (%) KCZ): 74% | remaining at 20 min ([4]; remaining parent compound, incubation time 20 min, read-out: Observed (%) Comp. I): 19%

CCCCCC(=O)Oc1c(C)cc(C[n+]2cnn(CC3(c4ccc(Cl)cc4Cl)OCC(COc4ccc(N5CCN(c6ccc(-n7cnn(C(C)CC)c7=O)cc6)CC5)cc4)O3)c2)cc1C (racemic) [Example 13, dl-1-[4-(4-{4-[4-(1-sec-butyl-5-oxo-1,5-dihydro-[1,2,4]triazol-4-yl)-phenyl]-piperazin-1-yl}-phenoxymethyl)-2-(2,4-dichloro-phenyl)-[1,3]dioxolan-2-ylmethyl]-4-(4-hexanoyloxy-3,5-dimethyl-benzyl)-1H-[1,2,4]triazol-4-ium methanesulfonate]
solubility ([3]; mcilvaine buffer, pH 8.02, aqueous buffer, solvent b = Mellvaine buffer(pH8.02), read-out: solubility): 500 µg/mL

COc1cc(C[n+]2ccn(CC3(c4ccc(Cl)cc4Cl)OCC(COc4ccc(N5CCN(C(C)=O)CC5)cc4)O3)c2)ccc1OC(C)=O (centres unmarked) [Example 12]
solubility [3, 14]: 5000 µg/mL

CC(=O)Oc1c(Cl)cc(C[n+]2ccn(CC3(c4ccc(Cl)cc4Cl)OCC(COc4ccc(N5CCN(C(C)=O)CC5)cc4)O3)c2)cc1Cl (stereo not drawn) [Example 6, 1-(4-Acetoxy-3,5-dichloro-benzyl)-3-[(2R*,4S*)-[4-[4-(4-acetyl-piperazin-1-yl)-phenoxymethyl]-2-(2,4-dichloro-phenyl)-[1,3]dioxolan-2-ylmethyl]-3H-imidazol-1-ium bromide]
solubility [3, 14]: 6500 µg/mL

OC(Cn1cncn1)(Cn1cncn1)c1ccc(F)cc1F [Fluconazole, reference compound]
ED50 (Candida albicans; po, read-out: Effective dose 50% (ED50) Systemic candidiasis p.o.): > 2.9 µmol/kg

CC(=O)Oc1c(C)cc(C[n+]2ccn(CC(OCc3ccc(Cl)cc3Cl)c3ccc(Cl)cc3Cl)c2)cc1C (racemic) [Example 7, dl-1-(4-Acetoxy-3,5-dimethyl-benzyl)-3-[2-(2,4-dichloro-benzyloxy)-2-(2,4-dichloro-phenyl)-ethyl]-3H-imidazol-1-ium bromide]
solubility [3, 14]: > 1000 µg/mL

CC(=O)N1CCN(c2ccc(OCC3COC(Cn4cc[n+](Cc5ccc(OC(=O)C(C)(C)C)cc5)c4)(c4ccc(Cl)cc4Cl)O3)cc2)CC1 (stereo not drawn) [Example 10, 3-[(2R*,4S*)-4-[4-(4-Acetylpiperazin-1-yl)phenoxymethyl]-2-(2,4-dichlorophenyl)-[1,3]dioxolan-2-ylmethyl]-1-[4-(2,2-dimethylpropionyloxy)benzyl]-3H-imidazol-1-ium bromides]
metabolised at 10 min ([4]; ketoconazole formed, incubation time 10 min, read-out: Observed (%) KCZ): 80% | remaining at 10 min ([4]; remaining parent compound, incubation time 10 min, read-out: Observed (%) Comp. I): < 5%
